Data from patent publication US20250179066A1, “ZWITTERIONIC ANTIBACTERIAL COMPOUNDS” (Hoffmann-La Roche Inc., priority 2022, published 2025).
Where a name gives a salt, the structure may show the parent alone.

Tested on: Acinetobacter baumannii ATCC17961
Test: Antimicrobial susceptibility testing: 90% growth inhibitory concentration (IC90) determination
Assay type: cell-based
Details: Acinetobacter baumannii, ATCC17961, 16 h, 90% growth inhibitory concentration against Acinetobacter baumannii ATCC17961, Iso-Sensitest broth, OD 600 nm over 16 h; read-out: ATCC 17961 IC90
Outline: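 Twofold serial dilutions (e.g. 10 to 0.0195 μM final) in Iso-Sensitest broth inoculated at ~5×10^5 CFU/mL, incubated at 35±2° C. OD600 read every minute for 16 h; IC90 is the concentration inhibiting 90% of growth during logarithmic phase.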

Row | SMILES | IC90 [nM]
1 | Cn1c(-c2cn(-c3nccs3)nc2C(F)(F)F)cnc1C(=O)Nc1ccc(C(=O)N2CCN(C(=O)C3CC[N+](CC(=O)O)(CC4CNC4)CC3)CC2)c(Cl)c1 (centres unmarked) [Example 43, 2-[1-(azetidin-3-ylmethyl)-4-[4-[2-chloro-4-[[1-methyl-5-[1-thiazol-2-yl-3-(trifluoromethyl)pyrazol-4-yl]imidazole-2-carbonyl]amino]benzoyl]piperazine-1-carbonyl]piperidin-1-ium-1-yl]acetic acid. 1:1 formate] | 460
2 | Cn1c(-c2cn(-c3ccc(NC4CC4)cn3)nc2C(F)(F)F)cnc1C(=O)Nc1ccc(C(=O)N2CCN(C(=O)C3CC[N+](CC(=O)O)(CC4CNC4)CC3)CC2)c(Cl)c1 (centres unmarked) [Example 44, 2-[1-(azetidin-3-ylmethyl)-4-[4-[2-chloro-4-[[5-[1-[5-(cyclopropylamino)-2-pyridyl]-3-(trifluoromethyl)pyrazol-4-yl]-1-methyl-imidazole-2-carbonyl]amino]benzoyl]piperazine-1-carbonyl]piperidin-1-ium-1-yl]acetic acid. 1:1 formate] | 490
3 | CN(C)c1ccc(-n2cc(-c3cnc(C(=O)Nc4ccc(C(=O)N5CCN(C(=O)C6CC[N+](CC(=O)O)(CC7CNC7)CC6)CC5)c(Cl)c4)n3C)c(C(F)(F)F)n2)cc1 (centres unmarked) [Example 46, 2-[1-(azetidin-3-ylmethyl)-4-[4-[2-chloro-4-[[5-[1-[4-(dimethylamino)phenyl]-3-(trifluoromethyl)pyrazol-4-yl]-1-methyl-imidazole-2-carbonyl]amino]benzoyl]piperazine-1-carbonyl]piperidin-1-ium-1-yl]acetic acid. 1:1 formate] | 500
4 | Cn1c(-c2cn(-c3ccc(NC[C@H]4COCCN4)cn3)nc2C(F)(F)F)cnc1C(=O)Nc1ccc(C(=O)N2CCN(C(=O)C3CC[N+](CC(=O)O)(CC4CNC4)CC3)CC2)c(Cl)c1 (stereo partly drawn) [Example 47, 2-[1-(azetidin-3-ylmethyl)-4-[4-[2-chloro-4-[[1-methyl-5-[1-[5-[[(3S)-morpholin-3-yl]methylamino]-2-pyridyl]-3-(trifluoromethyl)pyrazol-4-yl]imidazole-2-carbonyl]amino]benzoyl]piperazine-1-carbonyl]piperidin-1-ium-1-yl]acetic acid. 1:1 2,2,2-trifluoroacetic acid. 1:1 2,2,2-trifluoroacetate] | 500
5 | Cn1c(-c2cn(-c3ccc(N)cn3)nc2C(F)(F)F)cnc1C(=O)Nc1ccc(C(=O)N2CCN(C(=O)[C@H]3CC[N@+](CCCN)(CC(=O)O)CC3)CC2)c(Cl)c1 [Example 48, trans-2-[1-(3-aminopropyl)-4-[4-[4-[[5-[1-(5-amino-2-pyridyl)-3-(trifluoromethyl)pyrazol-4-yl]-1-methyl-imidazole-2-carbonyl]amino]-2-chloro-benzoyl]piperazine-1-carbonyl]piperidin-1-ium-1-yl]acetic acid. 1:1 2,2,2-trifluoroacetate] | 510
6 | CN(C)c1ccc(-n2cc(-c3cnc(C(=O)Nc4ccc(C(=O)N5CCN(C(=O)C6CC[N+](CC(=O)O)(CC7CNC7)CC6)CC5)c(Cl)c4)n3C)c(C(F)(F)F)n2)cn1 (centres unmarked) [Example 49, 2-[1-(azetidin-3-ylmethyl)-4-[4-[2-chloro-4-[[5-[1-[6-(dimethylamino)-3-pyridyl]-3-(trifluoromethyl)pyrazol-4-yl]-1-methyl-imidazole-2-carbonyl]amino]benzoyl]piperazine-1-carbonyl]piperidin-1-ium-1-yl]acetic acid. 1:1 2,2,2-trifluoroacetate] | 520
7 | Cn1c(-c2cn(-c3ccc(N)cn3)nc2C(F)(F)F)cnc1C(=O)Nc1ccc(C(=O)N2CCN(C(=O)CCC[N+](CC(=O)O)(CC3CNC3)CC3CNC3)CC2)c(Cl)c1 [Example 50, [4-[4-[4-[[5-[1-(5-amino-2-pyridyl)-3-(trifluoromethyl)pyrazol-4-yl]-1-methyl-imidazole-2-carbonyl]amino]-2-chloro-benzoyl]piperazino]-4-keto-butyl]-bis(azetidin-3-ylmethyl)-(carboxymethyl)ammonium. 1:1 2,2,2-trifluoroacetic acid. 1:1 2,2,2-trifluoroacetate] | 520
8 | Cn1c(-c2cn(-c3ccc(NCCCCCCN)cn3)nc2C(F)(F)F)cnc1C(=O)Nc1ccc(C(=O)N2CCN(C(=O)C3CC[N+](CC(=O)O)(CC4CNC4)CC3)CC2)c(Cl)c1 (centres unmarked) [Example 51, 2-[4-[4-[4-[[5-[1-[5-(6-aminohexylamino)-2-pyridyl]-3-(trifluoromethyl)pyrazol-4-yl]-1-methyl-imidazole-2-carbonyl]amino]-2-chloro-benzoyl]piperazine-1-carbonyl]-1-(azetidin-3-ylmethyl)piperidin-1-ium-1-yl]acetic acid. 1:1 2,2,2-trifluoroacetic acid. 1:1 2,2,2-trifluoroacetate] | 520
9 | CN1CCN(c2ccc(-n3cc(-c4cnc(C(=O)Nc5ccc(C(=O)N6CCN(C(=O)C7CC[N+](CC(=O)O)(CC8CNC8)CC7)CC6)c(Cl)c5)n4C)c(C(F)(F)F)n3)nc2)CC1 (centres unmarked) [Example 53, 2-[1-(azetidin-3-ylmethyl)-4-[4-[2-chloro-4-[[1-methyl-5-[1-[5-(4-methylpiperazino)-2-pyridyl]-3-(trifluoromethyl)pyrazol-4-yl]imidazole-2-carbonyl]amino]benzoyl]piperazine-1-carbonyl]piperidin-1-ium-1-yl]acetic acid. 1:1 formate] | 550
10 | Cn1c(-c2cn(-c3ccc(NC[C@@H]4C[C@H](F)CN4)cn3)nc2C(F)(F)F)cnc1C(=O)Nc1ccc(C(=O)N2CCN(C(=O)C3CC[N+](CC(=O)O)(CC4CNC4)CC3)CC2)c(Cl)c1 (stereo partly drawn) [Example 57, 2-[1-(azetidin-3-ylmethyl)-4-[4-[2-chloro-4-[[5-[1-[5-[[(2S,4S)-4-fluoropyrrolidin-2-yl]methylamino]-2-pyridyl]-3-(trifluoromethyl)pyrazol-4-yl]-1-methyl-imidazole-2-carbonyl]amino]benzoyl]piperazine-1-carbonyl]piperidin-1-ium-1-yl]acetic acid. 1:1 2,2,2-trifluoroacetic acid. 1:1 2,2,2-trifluoroacetate] | 610
11 | Cn1c(-c2cn(-c3ncc(N)cc3F)nc2C(F)(F)F)cnc1C(=O)Nc1ccc(C(=O)N2CCN(C(=O)[C@H]3CC[N@+](CC(=O)O)(CC4CNC4)CC3)CC2)c(Cl)c1 [Example 58, cis-2-[4-[4-[4-[[5-[1-(5-Amino-3-fluoro-2-pyridyl)-3-(trifluoromethyl)pyrazol-4-yl]-1-methyl-imidazole-2-carbonyl]amino]-2-chloro-benzoyl]piperazine-1-carbonyl]-1-(azetidin-3-ylmethyl)piperidin-1-ium-1-yl]acetic Acid.1:1 2,2,2-trifluoroacetate] | 630

Next, values leading:

Row | IC90 [nM] | SMILES
12 | 440 | Cn1c(-c2cn(-c3ccc4[nH]ncc4n3)nc2C(F)(F)F)cnc1C(=O)Nc1ccc(C(=O)N2CCN(C(=O)[C@H]3CC[N@+](CC(=O)O)(CC4CNC4)CC3)CC2)c(Cl)c1 [Example 42, cis-2-[1-(azetidin-3-ylmethyl)-4-[4-[2-chloro-4-[[1-methyl-5-[1-(1H-pyrazolo[4,3-b]pyridin-5-yl)-3-(trifluoromethyl)pyrazol-4-yl]imidazole-2-carbonyl]amino]benzoyl]piperazine-1-carbonyl]piperidin-1-ium-1-yl]acetic acid. 1:1 2,2,2-trifluoroacetate]
13 | 500 | CN(C)c1ccc(-n2cc(-c3cnc(C(=O)Nc4ccc(C(=O)N5CCN(C(=O)C6CC[N+](CC(=O)O)(CC7CNC7)CC6)CC5)c(Cl)c4)n3C)c(C(F)(F)F)n2)nc1 (centres unmarked) [Example 45, 2-[1-(azetidin-3-ylmethyl)-4-[4-[2-chloro-4-[[5-[1-[5-(dimethylamino)-2-pyridyl]-3-(trifluoromethyl)pyrazol-4-yl]-1-methyl-imidazole-2-carbonyl]amino]benzoyl]piperazine-1-carbonyl]piperidin-1-ium-1-yl]acetic acid. 1:1 formate]
14 | 530 | CNc1ccnc(-n2cc(-c3cnc(C(=O)Nc4ccc(C(=O)N5CCN(C(=O)C6CC[N+](CC(=O)O)(CC7CNC7)CC6)CC5)c(Cl)c4)n3C)c(C(F)(F)F)n2)c1 (centres unmarked) [Example 52, 2-[1-(azetidin-3-ylmethyl)-4-[4-[2-chloro-4-[[1-methyl-5-[1-[4-(methylamino)-2-pyridyl]-3-(trifluoromethyl)pyrazol-4-yl]imidazole-2-carbonyl]amino]benzoyl]piperazine-1-carbonyl]piperidin-1-ium-1-yl]acetic acid. 1:1 2,2,2-trifluoroacetate]
15 | 550 | Cn1c(-c2cn(-c3ccc(O)cn3)nc2C(F)(F)F)cnc1C(=O)Nc1ccc(C(=O)N2CCN(C(=O)C3CC[N+](CC(=O)O)(CC4CNC4)CC3)CC2)c(Cl)c1 (centres unmarked) [Example 54, 2-[1-(azetidin-3-ylmethyl)-4-[4-[2-chloro-4-[[5-[1-(5-hydroxy-2-pyridyl)-3-(trifluoromethyl)pyrazol-4-yl]-1-methyl-imidazole-2-carbonyl]amino]benzoyl]piperazine-1-carbonyl]piperidin-1-ium-1-yl]acetic acid. 1:1 2,2,2-trifluoroacetate]
16 | 550 | Cn1c(-c2cn(-c3ccc4[nH]cnc4n3)nc2C(F)(F)F)cnc1C(=O)Nc1ccc(C(=O)N2CCN(C(=O)[C@H]3CC[N@+](CC(=O)O)(CC4CNC4)CC3)CC2)c(Cl)c1 [Example 55, cis-2-[1-(azetidin-3-ylmethyl)-4-[4-[2-chloro-4-[[5-[1-(1H-imidazo[4,5-b]pyridin-5-yl)-3-(trifluoromethyl)pyrazol-4-yl]-1-methyl-imidazole-2-carbonyl]amino]benzoyl]piperazine-1-carbonyl]piperidin-1-ium-1-yl]acetic acid. 1:1 2,2,2-trifluoroacetate]
17 | 560 | Cn1c(-c2cn(-c3cccc(N)n3)nc2C(F)(F)F)cnc1C(=O)Nc1ccc(C(=O)N2CCN(C(=O)C3CC[N+](CC(=O)O)(CC4CNC4)CC3)CC2)c(Cl)c1 (centres unmarked) [Example 56, 2-[4-[4-[4-[[5-[1-(6-amino-2-pyridyl)-3-(trifluoromethyl)pyrazol-4-yl]-1-methyl-imidazole-2-carbonyl]amino]-2-chloro-benzoyl]piperazine-1-carbonyl]-1-(azetidin-3-ylmethyl)piperidin-1-ium-1-yl]acetic acid. 1:1 2,2,2-trifluoroacetate]
